Results taken from patent publication US20260138961A1, “MODULATORS OF MITOCHONDRIAL DNA REPLICATION” (Pretzel Therapeutics, Inc., priority 2022, published 2026).

These molecules were tested against T1, POLγA:Y955C (Homo sapiens, UniProt P54098, Y955C) (assay: DNA polymerization assay, POLγA:Y955C mutant). Settings: stimulation of polymerase activity, primed M13mp18 ssDNA, 37° C. 2 hours.
T1 sequence (P54098 1-1239 Y955C): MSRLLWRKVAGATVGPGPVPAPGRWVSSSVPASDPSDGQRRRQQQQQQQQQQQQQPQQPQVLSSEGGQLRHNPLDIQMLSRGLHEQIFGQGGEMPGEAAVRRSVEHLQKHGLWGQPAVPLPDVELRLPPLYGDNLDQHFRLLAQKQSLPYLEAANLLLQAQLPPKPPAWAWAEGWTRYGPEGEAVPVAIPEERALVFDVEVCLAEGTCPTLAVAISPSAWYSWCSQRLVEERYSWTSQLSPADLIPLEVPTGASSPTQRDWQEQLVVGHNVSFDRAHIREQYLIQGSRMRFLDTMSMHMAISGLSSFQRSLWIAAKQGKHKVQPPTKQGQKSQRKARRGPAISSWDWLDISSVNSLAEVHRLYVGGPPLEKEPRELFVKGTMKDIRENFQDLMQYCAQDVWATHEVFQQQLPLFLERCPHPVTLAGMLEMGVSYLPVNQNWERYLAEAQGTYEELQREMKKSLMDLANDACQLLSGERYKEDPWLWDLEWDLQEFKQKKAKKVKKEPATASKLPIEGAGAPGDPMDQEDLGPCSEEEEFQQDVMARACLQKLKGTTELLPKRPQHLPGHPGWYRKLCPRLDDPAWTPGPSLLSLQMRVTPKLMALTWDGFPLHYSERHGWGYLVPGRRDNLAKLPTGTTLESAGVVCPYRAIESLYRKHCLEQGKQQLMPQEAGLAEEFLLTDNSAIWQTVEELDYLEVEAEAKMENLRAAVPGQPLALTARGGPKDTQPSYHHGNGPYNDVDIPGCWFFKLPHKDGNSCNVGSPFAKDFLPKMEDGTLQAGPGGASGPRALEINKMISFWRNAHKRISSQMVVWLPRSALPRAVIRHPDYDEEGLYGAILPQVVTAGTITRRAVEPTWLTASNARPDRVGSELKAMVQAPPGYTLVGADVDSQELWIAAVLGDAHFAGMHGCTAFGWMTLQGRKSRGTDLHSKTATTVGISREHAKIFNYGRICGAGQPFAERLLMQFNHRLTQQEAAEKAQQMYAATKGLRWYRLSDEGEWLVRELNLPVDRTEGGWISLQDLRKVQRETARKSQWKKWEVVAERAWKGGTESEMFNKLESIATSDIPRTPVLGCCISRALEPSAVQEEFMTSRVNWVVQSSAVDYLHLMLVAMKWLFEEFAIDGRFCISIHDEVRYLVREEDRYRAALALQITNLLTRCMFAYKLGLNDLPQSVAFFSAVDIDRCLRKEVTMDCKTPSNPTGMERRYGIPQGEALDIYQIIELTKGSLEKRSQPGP
T1 sequence (Q9UHN1 1-485 partner): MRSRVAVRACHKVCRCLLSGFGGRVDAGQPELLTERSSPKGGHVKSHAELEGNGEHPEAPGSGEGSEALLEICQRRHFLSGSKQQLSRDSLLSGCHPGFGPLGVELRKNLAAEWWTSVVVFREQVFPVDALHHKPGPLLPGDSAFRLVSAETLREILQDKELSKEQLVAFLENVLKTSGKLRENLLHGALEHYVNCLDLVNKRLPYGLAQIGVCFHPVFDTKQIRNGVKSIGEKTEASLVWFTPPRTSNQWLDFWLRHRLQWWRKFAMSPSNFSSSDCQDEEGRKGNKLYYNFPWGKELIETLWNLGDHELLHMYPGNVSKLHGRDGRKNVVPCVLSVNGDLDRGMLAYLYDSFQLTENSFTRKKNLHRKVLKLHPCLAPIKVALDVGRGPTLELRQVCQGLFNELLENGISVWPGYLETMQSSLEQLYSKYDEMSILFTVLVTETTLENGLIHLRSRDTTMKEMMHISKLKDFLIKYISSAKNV
Type: biochemical
Description: DNA Polymerization Assay to Monitor Effects on Human Wildtype POLγ and Four Disease-Causing Mutant Variants of Human POLγ.
The ability of small molecules to stimulate the polymerase activity of POLγ was analyzed in a quantitative fluorescence SYBR Green I assay with fluorescence intensity (FI) readout.
In the presence of dNTPs, wild type human POLγ and mutant derivatives thereof were incubated with single-stranded, circular M13mp18 ssDNA hybridized to a short DNA oligonucleotide that functions as a primer for initiation of DNA synthesis. POLγ and mutant derivatives thereof will extend the primer and use the M13mp18 molecule as a template to synthesize long stretches of double-stranded DNA. SYBR Green I, which is a double-stranded DNA-binding dye, was used to quantify formation of double-stranded DNA in the reaction. When bound to double-stranded DNA, SYBR Green I fluorescence increases by up to 100-fold.
The assay was performed in the 384-well plate format. Upon addition of compounds, changes in double-stranded DNA synthesis activity can be monitored by following effects on fluorescent intensity.
The reactions also contained the accessory POLγB subunit, and the human mitochondrial single-stranded DNA binding protein (mtSSB).
The DNA template mixture used in the assay contained 0.5 nM primed M13 mp18 ssDNA, 400 nM mtSSB, 0.1 mM Tris-HCl (pH 8.0), 0.1 mM dNTP, 10 mM MgCl2, 0.1 mg/mL BSA, 1 mM TCEP solution, and 0.02% Triton X-100. The DNA template mixture for the wild type protein contained either 100 μM dNTP, 1 μM dNTP, or 0.1 μM dNTP, designated in Table 2 as 100 μM, 1 μM, and 0.1 μM, respectfully.
Microplates with compounds (0.1 μL in each well) to be tested in the assay were prepared from 10 mM compound stocks in 100% DMSO, and equal amounts of DMSO without any compound were added to positive and negative control wells.
The protein mixture was dispensed (5 μL into each well) into compound plates and incubated at 37° C. for 15 minutes. After incubation, 5 μL of the DNA template mixture was dispensed into each well. The plates were then incubated at 37° C. for 2 hours.
During incubation, a combined stop buffer and detection reagent solution was prepared. The buffer contained 25 mM EDTA (pH 8.0), 0.02% Triton X-100, and SYBR Green I [Invitrogen] diluted 10,000× (for fluorescent readout). EDTA will stop the enzymatic reaction by chelating magnesium ions.

Row | SMILES | AC50
1 | Cc1cc(S(=O)(=O)Nc2ccc3ccn(C)c3c2)c(C)cc1Cl [Example 72, 4-chloro-2,5-dimethyl-N-(1-methyl-1H-indol-6-yl)benzenesulfonamide] | 6000 nM
2 | Cc1cc(S(=O)(=O)Nc2cccc(-c3ncc(C4CC4)s3)c2)c(C)cc1Cl [Example 76, 4-chloro-N-(3-(5-cyclopropylthiazol-2-yl)phenyl)-2,5-dimethylbenzenesulfonamide] | 2000 nM
3 | Cc1nc2ccc(NS(=O)(=O)c3cc(C)c(Cl)cc3C)cc2s1 [Example 73, 4-chloro-2,5-dimethyl-N-(2-methylbenzo[d]thiazol-6-yl)benzenesulfonamide] | 800 nM

Now from value to molecule:

Row | AC50 | SMILES
4 | 200 nM | Cc1cc(S(=O)(=O)Nc2csc(-c3ccccc3)n2)c(C)cc1Cl [Example 81, 4-chloro-2,5-dimethyl-N-(2-phenylthiazol-4-yl)benzenesulfonamide]
5 | > 100000 nM | Cc1csc(-c2ccccc2NS(=O)(=O)c2cc(C)c(Cl)cc2C)n1 [Example 80, 4-chloro-2,5-dimethyl-N-(2-(4-methylthiazol-2-yl)phenyl)benzenesulfonamide]
6 | 6000 nM | Cc1cc(S(=O)(=O)Nc2cccc(-c3ncc(CN(C)C)s3)c2)c(C)cc1Cl [Example 87, 4-chloro-N-(3-(5-((dimethylamino)methyl)thiazol-2-yl)phenyl)-2,5-dimethylbenzenesulfonamide]
7 | 100 nM | Cc1cc(S(=O)(=O)Nc2cccc(-c3ncc(CO)s3)c2)c(C)cc1Cl [Example 89, 4-chloro-N-(3-(5-(hydroxymethyl)thiazol-2-yl)phenyl)-2,5-dimethylbenzenesulfonamide]
